# From BindingDB's records for doi:10.7270/Q2TX3CTT (Broad Institute, 2010)
# Target: Glycogen synthase kinase-3 beta (Homo sapiens, UniProt P49841)
# Experiment: GSK3beta kinase inhibitor potency, dose response, biochemical, luminescence, cell-free homogeneous, retest (AID 434954)
# Glycogen synthase kinase-3 beta, sequence (P49841 whole entry): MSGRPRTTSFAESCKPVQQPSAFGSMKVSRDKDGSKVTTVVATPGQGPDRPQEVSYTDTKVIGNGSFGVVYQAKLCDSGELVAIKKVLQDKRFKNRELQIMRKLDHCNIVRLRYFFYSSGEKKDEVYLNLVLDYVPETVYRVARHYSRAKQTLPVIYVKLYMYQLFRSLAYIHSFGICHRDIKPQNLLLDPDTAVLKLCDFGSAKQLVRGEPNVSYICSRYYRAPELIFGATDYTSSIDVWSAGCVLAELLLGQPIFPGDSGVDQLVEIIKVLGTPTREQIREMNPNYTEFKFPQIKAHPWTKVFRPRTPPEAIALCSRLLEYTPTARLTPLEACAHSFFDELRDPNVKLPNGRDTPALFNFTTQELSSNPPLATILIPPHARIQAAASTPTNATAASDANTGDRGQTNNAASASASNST
row,SMILES,EC50
1,Clc1ccc2[nH]c3c(c2c1)CCc1c[nH]nc1-3 [MLS000108710],25.3 µM
2,CC1(C)CC(=O)C=C(Nc2cccc(O)c2)C1 [MLS000108953],> 300 µM
3,COc1ccc(-c2nn(-c3ccccc3)cc2CO)cc1OC [MLS000110763],> 300 µM
4,O=C(Nc1cccc(F)c1)Nc1ccccn1 [MLS000111709],> 300 µM
5,COCCOC(=O)c1c(C)oc2ccc(OC(=O)c3cccs3)cc12 [MLS000111716],> 300 µM
6,CCCc1cc(=O)oc2cc(C)c3c(C)coc3c12 [MLS000112563],> 300 µM
7,CCOC(=O)C1C(C)=Nc2ncnn2C1c1cc(OC)ccc1OC (stereo unspecified) [MLS000112815],> 300 µM
8,Cc1ccc(-c2oc3ccccc3c(=O)c2O)cc1 [MLS000114653],> 300 µM
9,COc1ccc(C(=O)c2coc3ccc(O)c(CN4CCOCC4)c23)cc1 [MLS000115876],> 300 µM
10,COc1ccc(C(=O)c2coc3ccc(O)c(CN(C)C)c23)cc1 [MLS000115878],> 300 µM
11,CCn1c(SCC(=O)Nc2ccc(Cl)cc2)nnc1C1CC1 [MLS000115911],> 300 µM
12,CCCc1cc(C(=O)Nc2cc(Br)ccc2O)no1 [MLS000116375],> 300 µM
13,Cc1cc(NC(=O)c2noc3c2CCc2ccccc2-3)n(-c2ccccc2)n1 [MLS000116423],> 300 µM
14,COc1ccc(N2C(=O)C3CCCN3C2c2ccccc2F)cc1 (stereo unspecified) [MLS000117169],> 300 µM
15,CCN1CCN(C(=O)c2ccc3c(c2)N(Cc2ccc(F)cc2)C(=O)c2ccccc2[S+]3[O-])CC1 (stereo unspecified) [MLS000117749],> 300 µM
16,Cc1nn(C)c(C)c1S(=O)(=O)N(CC(=O)Nc1nccs1)c1ccc(C(C)C)cc1 [MLS000118397],> 300 µM
17,CCOC(=O)c1ccc(NC(=O)CSc2nnc(C3CC3)n2CC)cc1 [MLS000121467],> 300 µM
18,Oc1cc(-c2c[nH]c3ccccc23)c(O)n1-c1ccccc1 [MLS000121758],> 300 µM
19,O=C(/[O+]=N/[CH-]c1ccc(N2CCCCC2)c([N+](=O)[O-])c1)c1c(F)cccc1F [MLS000326582],> 300 µM
20,O=C(/[O+]=N/[CH-]c1ccc(N2CCCCC2)c([N+](=O)[O-])c1)c1ccc(Cl)cc1Cl [MLS000326612],> 300 µM
21,O=C(Nc1ccnc(-c2cccnc2)n1)c1ccc(Cl)c(Cl)c1 [MLS000327684],> 300 µM
22,O=[N+]([O-])c1cc(-c2nc(-c3ccncc3)no2)ccc1Cl [MLS000331762],> 300 µM

row,SMILES,EC50
1,CCC(C)Nc1nc(N)c([N+](=O)[O-])c(NCCO)n1 (stereo unspecified) [MLS000332774],14.7 µM
2,COc1ccc(Nc2nc(N)c([N+](=O)[O-])c(NCc3ccccc3)n2)cc1 [MLS000332775],10.1 µM
3,Cc1cccc(Nc2nc(N)c([N+](=O)[O-])c(NCc3ccccc3)n2)c1 [MLS000332785],21.4 µM
4,Nc1nc(NCc2ccccc2)nc(NCCO)c1[N+](=O)[O-] [MLS000332798],71.9 µM
5,Nc1nc(Nc2cccc(Cl)c2)nc(NCc2ccco2)c1[N+](=O)[O-] [MLS000333252],6.01 µM
6,Cc1ccc(Nc2nc(N)c([N+](=O)[O-])c(NCCO)n2)cc1 [MLS000333433],79.7 µM
7,Cc1ccccc1CSc1nnc([C@@H]2CCCN2)o1 [MLS000333752],> 300 µM
8,CCOc1cc(C(=O)OCC(=O)Nc2ccc(Cl)cn2)ccc1OCC(=O)N1CCOCC1 [MLS000334350],61.8 µM
9,COc1ccc(-c2nn(-c3ccccc3)cc2CN=Nc2ccccn2)cc1 [MLS000336205],> 300 µM
10,O=C(COc1ccc2ccccc2c1)Nc1cccc2c1C(=O)NC2=O [MLS000375387],> 300 µM
11,COc1ccc(-c2nn(-c3ccccc3)cc2CN=Nc2ccccn2)cc1OC [MLS000388893],66.1 µM
12,COc1ccc(-c2nn(-c3ccccc3)cc2CN=Nc2ccc3ccccc3n2)cc1OC [MLS000388895],> 300 µM
13,O=C(COC(=O)C1CCN(/C=C/C(=O)C(F)(F)F)CC1)Nc1ccccc1 [MLS000390182],> 300 µM
14,CCOC(=O)c1c(C)[nH]c(C(=O)CSc2nccc(C)n2)c1C [MLS000391683],> 300 µM
15,c1ccc(-c2nc(-c3ccco3)n3ccccc23)cc1 [MLS000392030],> 300 µM
16,Cc1nn(-c2ccccc2)c(Cl)c1C(=O)NCc1cccs1 [MLS000394567],> 300 µM
17,O=C(COC(=O)C1CCN(S(=O)(=O)c2ccccc2)CC1)NC(=O)c1ccc(OC(F)F)cc1 [MLS000394677],> 300 µM
18,Cc1ccc(NS(=O)(=O)c2cccc(C(=O)NN=Cc3c(C)nn(-c4ccccc4)c3N3CCCC3)c2)c(C)c1 [MLS000394744],> 300 µM
19,CCN(c1ccccc1)S(=O)(=O)c1cc(NC(=O)Nc2ccccc2C#N)ccc1Cl [MLS000395038],> 300 µM
20,CC(C)N1CCc2c(sc(NC(=O)CCc3ccccc3)c2C(N)=O)C1 [MLS000419104],> 300 µM
21,Cc1ccccc1CN=Nc1ncnc2nc[nH]c12 [MLS000419110],17.2 µM
22,c1csc(CN=Nc2ncnc3nc[nH]c23)c1 [MLS000419130],19.7 µM

row,SMILES,EC50
1,Cc1ccc(CN=Nc2ncnc3nc[nH]c23)cc1 [MLS000419179],30.1 µM
2,Clc1ccc(CN=Nc2ncnc3nc[nH]c23)cc1 [MLS000419189],20.4 µM
3,CCc1ccc(CN=Nc2ncnc3nc[nH]c23)cc1 [MLS000419199],26.6 µM
4,CC(=O)N1CCc2c(sc(NC(=O)CN3C(=O)c4ccccc4C3=O)c2C(N)=O)C1 [MLS000419451],19.5 µM
5,Nc1ccc(O)c2c(=O)cc(-c3ccccc3Cl)oc12 [MLS000518334],21.5 µM
6,O=c1cc(-c2ccccc2Cl)oc2c([N+](=O)[O-])c(O)cc(O)c12 [MLS000518336],2.58 µM
7,O=c1cc(-c2ccccc2Cl)oc2c(NS(=O)(=O)c3cccs3)ccc(O)c12 [MLS000518499],> 300 µM
8,COc1ccccc1-c1cc(=O)c2c(O)ccc([N+](=O)[O-])c2o1 [MLS000518626],> 300 µM
9,Cc1ccccc1C(=O)Nc1ccc(O)c2c(=O)cc(-c3ccccc3Cl)oc12 [MLS000518806],> 300 µM
10,COc1cccc(C2c3cc4c(cc3N=C3CC(C)(C)CC(=O)C32)OCO4)c1 (stereo unspecified) [MLS000522404],> 300 µM
11,Cc1ccc(N2CSC3=C(C#N)C(c4cccs4)CC(=O)N3C2)cc1 (stereo unspecified) [MLS000522486],> 300 µM
12,O=C(NCCCN1CCCC1=O)c1ccc2c(c1)NC(=O)c1ccccc1S2 [MLS000522698],> 300 µM
13,COc1ccc(Nc2nc(N)nc(CSc3nnc(C)s3)n2)cc1 [MLS000527270],82 µM
14,CC1(C)CC(=O)C2C(=Nc3cc4c(cc3C2c2ccc(F)cc2)OCO4)C1 (stereo unspecified) [MLS000528763],> 300 µM
15,CC1=Nc2nnnn2C(c2sccc2C)C1C(N)=O (stereo unspecified) [MLS000528936],> 300 µM
16,CCOc1ccc2c(c1)-c1c(ssc1=S)C(C)(C)N2C [MLS000529181],> 300 µM
17,COc1ccc(-c2nn(-c3ccccc3)cc2CO)cc1 [MLS000534260],> 300 µM
18,Cc1ccc(-n2c(N)c(C(=O)NCc3cccnc3)sc2=S)cc1 [MLS000535145],> 300 µM
19,COC(=O)CSc1ncnc2c1sc1nc(N3CCOCC3)c3c(c12)CCCC3 [MLS000535174],> 300 µM
20,COCCn1c(SCC(=O)Nc2ccc(Cl)c(S(=O)(=O)N(C)C)c2)nc2ccccc21 [MLS000536225],> 300 µM
21,COc1cc(CN=Nc2ccc([N+](=O)[O-])cc2)ccc1OCC(=O)Nc1ccc(C)c(C)c1 [MLS000537060],> 300 µM
22,CCCN(CCC)c1nc(N)nc(-c2cc(Cl)ccc2OC)n1 [MLS000538209],> 300 µM
